Results published in ChEMBL document CHEMBL4507292 (2021).

Columns and labels:
[1] = molecular target: Calcium/calmodulin-dependent protein kinase type IV (Homo sapiens) (UniProt Q16566); settings: Compound concentration 1000.0 nM
[2] = molecular target: Interferon-induced, double-stranded RNA-activated protein kinase (Homo sapiens) (UniProt P19525); settings: Compound concentration 1000.0 nM
[3] = tested on: ALK tyrosine kinase receptor (Homo sapiens), Q9UM73 [C1156Y]; settings: Compound concentration 1000.0 nM
[4] = molecular target: Inhibitor of nuclear factor kappa-B kinase subunit beta (Homo sapiens) (UniProt O14920); settings: Compound concentration 1000.0 nM
[5] = molecular target: Serine/threonine-protein kinase NLK (Homo sapiens) (UniProt Q9UBE8); settings: Compound concentration 1000.0 nM
[6] = molecular target: Serine/threonine-protein kinase Nek9 (Homo sapiens) (UniProt Q8TD19); settings: Compound concentration 1000.0 nM
[7] = molecular target: Transient receptor potential cation channel subfamily M member 6 (Homo sapiens) (UniProt Q9BX84); settings: Compound concentration 1000.0 nM
[8] = molecular target: Fibroblast growth factor receptor 1 (Homo sapiens) (UniProt P11362); settings: Compound concentration 1000.0 nM
[9] = molecular target: BDNF/NT-3 growth factors receptor (Homo sapiens) (UniProt Q16620); settings: Compound concentration 1000.0 nM
[10] = molecular target: Glycogen synthase kinase-3 alpha (Homo sapiens) (UniProt P49840); settings: Compound concentration 1000.0 nM
[11] = molecular target: Ribosomal protein S6 kinase alpha-2 (Homo sapiens) (UniProt Q15349); settings: Compound concentration 1000.0 nM
[12] = molecular target: Casein kinase I isoform delta (Homo sapiens) (UniProt P48730); settings: Compound concentration 1000.0 nM
[13] = tested on: Tyrosine-protein kinase ABL1 (Homo sapiens), P00519 [F317L]; settings: Compound concentration 1000.0 nM
[14] = molecular target: 5-hydroxytryptamine receptor 2B (Homo sapiens) (UniProt P41595); settings: Compound concentration 10.0 uM
[15] = molecular target: Serine/threonine-protein kinase TAO3 (Homo sapiens) (UniProt Q9H2K8); settings: Compound concentration 1000.0 nM
[16] = molecular target: Alpha-1B adrenergic receptor (Homo sapiens) (UniProt P35368); settings: Compound concentration 10.0 uM
[17] = molecular target: Serine/threonine-protein kinase MARK2 (Homo sapiens) (UniProt Q7KZI7); settings: Compound concentration 1000.0 nM
[18] = molecular target: Serine/threonine-protein kinase DCLK3 (Homo sapiens) (UniProt Q9C098); settings: Compound concentration 1000.0 nM
[19] = molecular target: Calcium/calmodulin-dependent protein kinase type II subunit gamma (Homo sapiens) (UniProt Q13555); settings: Compound concentration 1000.0 nM
[20] = molecular target: Serine/threonine-protein kinase STK11 (Homo sapiens) (UniProt Q15831); settings: Compound concentration 1000.0 nM
[21] = molecular target: Serine/threonine-protein kinase DCLK1 (Homo sapiens) (UniProt O15075); settings: Compound concentration 1000.0 nM
[22] = molecular target: TGF-beta receptor type-1 (Homo sapiens) (UniProt P36897); settings: Compound concentration 1000.0 nM
[23] = tested on: Mast/stem cell growth factor receptor Kit (Homo sapiens), P10721 [V559D,V654A]; settings: Compound concentration 1000.0 nM
[24] = molecular target: Cyclin-dependent kinase 4 (Homo sapiens) (UniProt P11802); settings: Compound concentration 1000.0 nM
[25] = molecular target: Phosphatidylinositol 4,5-bisphosphate 3-kinase catalytic subunit delta isoform (Homo sapiens) (UniProt O00329); settings: Compound concentration 1000.0 nM
[26] = molecular target: Serine/threonine-protein kinase DCLK2 (Homo sapiens) (UniProt Q8N568); settings: Compound concentration 1000.0 nM
[27] = molecular target: Cyclin-dependent kinase-like 2 (Homo sapiens) (UniProt Q92772); settings: Compound concentration 1000.0 nM
[28] = molecular target: STE20-like serine/threonine-protein kinase (Homo sapiens) (UniProt Q9H2G2); settings: Compound concentration 1000.0 nM
[29] = tested on: Phosphatidylinositol 4,5-bisphosphate 3-kinase catalytic subunit alpha isoform (Homo sapiens), P42336 [E545K]; settings: Compound concentration 1000.0 nM
[30] = molecular target: Serine/threonine-protein kinase tousled-like 2 (Homo sapiens) (UniProt Q86UE8); settings: Compound concentration 1000.0 nM
[31] = molecular target: Serine/threonine-protein kinase 4 (Homo sapiens) (UniProt Q13043); settings: Compound concentration 1000.0 nM
[32] = molecular target: RAF proto-oncogene serine/threonine-protein kinase (Homo sapiens) (UniProt P04049); settings: Compound concentration 1000.0 nM
[33] = molecular target: Serine/threonine-protein kinase mTOR (Homo sapiens) (UniProt P42345); settings: Compound concentration 1000.0 nM
[34] = molecular target: Mitogen-activated protein kinase kinase kinase kinase 2 (Homo sapiens) (UniProt Q12851); settings: Compound concentration 1000.0 nM
[35] = molecular target: cGMP-dependent protein kinase 2 (Homo sapiens) (UniProt Q13237); settings: Compound concentration 1000.0 nM
[36] = molecular target: SRSF protein kinase 1 (Homo sapiens) (UniProt Q96SB4); settings: Compound concentration 1000.0 nM
[37] = molecular target: Ribosomal protein S6 kinase alpha-4 (Homo sapiens) (UniProt O75676); settings: Compound concentration 1000.0 nM
[38] = molecular target: Serine/threonine-protein kinase Nek7 (Homo sapiens) (UniProt Q8TDX7); settings: Compound concentration 1000.0 nM
[39] = molecular target: Mitogen-activated protein kinase 14 (Homo sapiens, UniProt Q16539); settings: Compound concentration 1000.0 nM
[40] = tested on: Tyrosine-protein kinase ABL1 (Homo sapiens), P00519 [H396P]; settings: Compound concentration 1000.0 nM
[41] = molecular target: Phosphatidylinositol 3-kinase catalytic subunit type 3 (Homo sapiens) (UniProt Q8NEB9); settings: Compound concentration 1000.0 nM
[42] = molecular target: Inhibitor of nuclear factor kappa-B kinase subunit alpha (Homo sapiens) (UniProt O15111); settings: Compound concentration 1000.0 nM
[43] = molecular target: Phosphatidylinositol 4,5-bisphosphate 3-kinase catalytic subunit beta isoform (Homo sapiens) (UniProt P42338); settings: Compound concentration 1000.0 nM
[44] = molecular target: Serine/threonine-protein kinase/endoribonuclease IRE1 (Homo sapiens) (UniProt O75460); settings: Compound concentration 1000.0 nM

Chain of 5-hydroxytryptamine receptor 2B (Homo sapiens) (P41595 whole entry): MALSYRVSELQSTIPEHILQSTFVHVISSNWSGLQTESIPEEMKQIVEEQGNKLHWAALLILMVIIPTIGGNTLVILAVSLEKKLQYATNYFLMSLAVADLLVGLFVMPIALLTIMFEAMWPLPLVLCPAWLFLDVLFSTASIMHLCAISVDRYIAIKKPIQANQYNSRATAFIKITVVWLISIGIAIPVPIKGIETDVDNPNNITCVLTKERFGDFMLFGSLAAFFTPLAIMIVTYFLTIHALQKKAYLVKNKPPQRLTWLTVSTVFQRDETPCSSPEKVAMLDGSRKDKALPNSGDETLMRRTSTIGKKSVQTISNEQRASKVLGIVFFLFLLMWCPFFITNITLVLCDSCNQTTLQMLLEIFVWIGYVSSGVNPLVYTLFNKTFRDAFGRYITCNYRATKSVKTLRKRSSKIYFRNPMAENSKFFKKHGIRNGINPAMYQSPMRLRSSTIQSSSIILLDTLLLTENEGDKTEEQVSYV
Chain of Phosphatidylinositol 4,5-bisphosphate 3-kinase catalytic subunit delta isoform (Homo sapiens) (O00329 whole entry, canonical isoform): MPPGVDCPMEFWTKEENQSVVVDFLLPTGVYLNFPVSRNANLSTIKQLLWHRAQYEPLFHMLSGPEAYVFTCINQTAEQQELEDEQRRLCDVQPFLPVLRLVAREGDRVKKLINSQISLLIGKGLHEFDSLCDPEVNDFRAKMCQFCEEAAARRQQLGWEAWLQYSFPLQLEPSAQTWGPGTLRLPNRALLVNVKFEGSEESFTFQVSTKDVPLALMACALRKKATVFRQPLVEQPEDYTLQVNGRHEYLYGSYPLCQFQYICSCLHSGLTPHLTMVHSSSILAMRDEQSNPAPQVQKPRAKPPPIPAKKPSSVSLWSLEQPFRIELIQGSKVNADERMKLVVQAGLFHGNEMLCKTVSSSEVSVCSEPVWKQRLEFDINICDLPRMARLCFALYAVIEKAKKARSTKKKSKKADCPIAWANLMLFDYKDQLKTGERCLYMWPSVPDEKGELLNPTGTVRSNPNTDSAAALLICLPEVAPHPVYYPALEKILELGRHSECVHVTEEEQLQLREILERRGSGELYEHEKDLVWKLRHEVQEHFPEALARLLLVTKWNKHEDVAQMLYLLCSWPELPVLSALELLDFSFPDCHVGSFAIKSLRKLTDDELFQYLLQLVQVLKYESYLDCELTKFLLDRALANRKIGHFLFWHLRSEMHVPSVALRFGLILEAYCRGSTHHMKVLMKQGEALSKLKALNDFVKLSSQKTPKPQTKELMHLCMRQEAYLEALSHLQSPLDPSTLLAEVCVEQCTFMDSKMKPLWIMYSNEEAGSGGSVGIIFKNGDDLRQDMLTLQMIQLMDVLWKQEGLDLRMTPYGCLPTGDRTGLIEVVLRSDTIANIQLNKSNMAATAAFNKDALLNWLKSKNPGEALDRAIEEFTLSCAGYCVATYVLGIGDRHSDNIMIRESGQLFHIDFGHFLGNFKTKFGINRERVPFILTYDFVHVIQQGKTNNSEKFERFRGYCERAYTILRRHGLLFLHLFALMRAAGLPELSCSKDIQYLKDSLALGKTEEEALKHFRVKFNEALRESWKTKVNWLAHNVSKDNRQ
Chain of Ribosomal protein S6 kinase alpha-2 (Homo sapiens) (Q15349 whole entry, canonical isoform): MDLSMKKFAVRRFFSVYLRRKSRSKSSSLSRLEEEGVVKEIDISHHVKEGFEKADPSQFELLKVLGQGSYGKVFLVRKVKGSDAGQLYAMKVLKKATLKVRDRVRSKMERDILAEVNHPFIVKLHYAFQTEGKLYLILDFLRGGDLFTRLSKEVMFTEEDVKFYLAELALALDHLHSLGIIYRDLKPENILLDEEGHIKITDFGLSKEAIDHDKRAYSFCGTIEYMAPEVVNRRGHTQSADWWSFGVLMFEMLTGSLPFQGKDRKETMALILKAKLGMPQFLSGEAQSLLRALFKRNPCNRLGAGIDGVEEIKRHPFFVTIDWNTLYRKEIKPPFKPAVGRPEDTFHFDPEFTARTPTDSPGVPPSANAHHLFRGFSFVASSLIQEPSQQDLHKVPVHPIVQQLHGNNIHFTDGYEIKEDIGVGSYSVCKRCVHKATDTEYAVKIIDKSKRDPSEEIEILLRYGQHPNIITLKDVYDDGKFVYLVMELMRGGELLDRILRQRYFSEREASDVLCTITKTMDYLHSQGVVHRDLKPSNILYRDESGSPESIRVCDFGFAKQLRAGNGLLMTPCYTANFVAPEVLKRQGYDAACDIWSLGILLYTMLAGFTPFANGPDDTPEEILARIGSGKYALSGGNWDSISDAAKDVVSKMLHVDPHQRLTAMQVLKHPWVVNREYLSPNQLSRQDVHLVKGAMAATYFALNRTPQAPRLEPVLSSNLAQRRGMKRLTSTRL
Chain of Cyclin-dependent kinase-like 2 (Homo sapiens) (Q92772 whole entry): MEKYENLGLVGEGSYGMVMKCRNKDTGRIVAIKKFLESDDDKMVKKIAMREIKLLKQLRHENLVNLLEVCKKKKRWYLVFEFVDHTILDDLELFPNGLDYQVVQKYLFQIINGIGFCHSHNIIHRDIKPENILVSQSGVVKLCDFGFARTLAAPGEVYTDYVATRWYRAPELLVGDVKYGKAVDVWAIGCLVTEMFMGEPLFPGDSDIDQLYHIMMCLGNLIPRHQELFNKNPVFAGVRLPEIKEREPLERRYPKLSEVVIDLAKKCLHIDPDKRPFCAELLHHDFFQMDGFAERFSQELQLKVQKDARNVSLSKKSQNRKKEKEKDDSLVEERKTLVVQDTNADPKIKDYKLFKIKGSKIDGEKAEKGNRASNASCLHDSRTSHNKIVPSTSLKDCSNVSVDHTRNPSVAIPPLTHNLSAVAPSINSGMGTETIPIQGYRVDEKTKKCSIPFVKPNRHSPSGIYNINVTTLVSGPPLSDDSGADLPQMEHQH
Chain of Serine/threonine-protein kinase STK11 (Homo sapiens) (Q15831 whole entry): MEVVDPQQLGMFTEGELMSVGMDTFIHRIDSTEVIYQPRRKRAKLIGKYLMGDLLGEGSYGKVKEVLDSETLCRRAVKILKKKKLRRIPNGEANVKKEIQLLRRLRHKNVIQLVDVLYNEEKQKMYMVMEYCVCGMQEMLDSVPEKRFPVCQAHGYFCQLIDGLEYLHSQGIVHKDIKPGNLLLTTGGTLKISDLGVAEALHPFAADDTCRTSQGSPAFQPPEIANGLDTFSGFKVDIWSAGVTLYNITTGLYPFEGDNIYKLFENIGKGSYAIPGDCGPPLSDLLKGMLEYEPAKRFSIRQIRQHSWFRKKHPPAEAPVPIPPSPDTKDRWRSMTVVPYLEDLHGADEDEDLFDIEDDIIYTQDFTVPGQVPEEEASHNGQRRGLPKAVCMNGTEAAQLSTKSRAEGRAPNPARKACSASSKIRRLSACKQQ
Chain of Mitogen-activated protein kinase kinase kinase kinase 2 (Homo sapiens) (Q12851 whole entry): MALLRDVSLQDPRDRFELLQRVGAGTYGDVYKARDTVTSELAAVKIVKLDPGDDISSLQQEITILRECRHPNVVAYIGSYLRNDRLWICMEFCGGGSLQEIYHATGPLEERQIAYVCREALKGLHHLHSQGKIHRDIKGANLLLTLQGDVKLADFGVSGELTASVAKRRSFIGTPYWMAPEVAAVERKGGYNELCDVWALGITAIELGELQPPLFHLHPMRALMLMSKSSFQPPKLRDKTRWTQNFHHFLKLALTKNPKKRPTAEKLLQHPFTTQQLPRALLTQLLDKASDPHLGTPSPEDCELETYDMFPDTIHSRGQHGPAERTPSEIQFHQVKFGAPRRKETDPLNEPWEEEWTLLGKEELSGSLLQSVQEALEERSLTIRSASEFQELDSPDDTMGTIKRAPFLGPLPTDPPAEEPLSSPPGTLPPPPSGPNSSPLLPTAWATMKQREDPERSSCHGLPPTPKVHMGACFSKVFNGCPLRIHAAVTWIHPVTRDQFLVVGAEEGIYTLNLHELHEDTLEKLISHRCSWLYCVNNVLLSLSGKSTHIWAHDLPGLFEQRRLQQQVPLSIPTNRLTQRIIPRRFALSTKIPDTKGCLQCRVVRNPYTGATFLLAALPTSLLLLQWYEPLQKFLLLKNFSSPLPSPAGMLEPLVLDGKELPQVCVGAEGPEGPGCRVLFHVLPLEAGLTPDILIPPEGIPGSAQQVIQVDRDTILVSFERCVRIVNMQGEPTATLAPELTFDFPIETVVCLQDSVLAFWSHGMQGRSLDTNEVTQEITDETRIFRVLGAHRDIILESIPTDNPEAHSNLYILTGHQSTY
Chain of Fibroblast growth factor receptor 1 (Homo sapiens) (P11362 22-822 limits assumed): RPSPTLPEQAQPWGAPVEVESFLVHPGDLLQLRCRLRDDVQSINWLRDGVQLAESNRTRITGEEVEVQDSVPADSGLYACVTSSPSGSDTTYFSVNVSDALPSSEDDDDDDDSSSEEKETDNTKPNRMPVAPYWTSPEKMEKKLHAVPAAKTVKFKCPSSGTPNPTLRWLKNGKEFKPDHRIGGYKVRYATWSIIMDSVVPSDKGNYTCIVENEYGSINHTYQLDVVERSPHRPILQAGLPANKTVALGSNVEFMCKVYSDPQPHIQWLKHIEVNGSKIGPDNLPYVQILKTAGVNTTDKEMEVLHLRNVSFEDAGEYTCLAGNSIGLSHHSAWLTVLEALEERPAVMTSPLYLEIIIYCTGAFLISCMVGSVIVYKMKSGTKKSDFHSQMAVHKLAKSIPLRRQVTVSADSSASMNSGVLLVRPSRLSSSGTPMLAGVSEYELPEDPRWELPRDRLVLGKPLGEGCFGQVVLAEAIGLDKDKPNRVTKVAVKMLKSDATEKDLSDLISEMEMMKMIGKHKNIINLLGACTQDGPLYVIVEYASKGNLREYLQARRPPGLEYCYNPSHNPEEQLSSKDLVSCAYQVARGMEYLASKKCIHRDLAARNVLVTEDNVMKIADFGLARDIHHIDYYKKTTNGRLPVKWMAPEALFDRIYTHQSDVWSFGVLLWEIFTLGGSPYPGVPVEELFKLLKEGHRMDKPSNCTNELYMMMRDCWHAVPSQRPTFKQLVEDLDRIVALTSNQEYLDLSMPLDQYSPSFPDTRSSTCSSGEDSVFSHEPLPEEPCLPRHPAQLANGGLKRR

## Cc1c(C(=O)O)cc(-c2ccc(C3CCNCC3)cc2)c2ccc(-c3ccc(C(F)(F)F)cc3)cc12 [PPTN-NC]
[1]
  residual activity: 100%
[2]
  residual activity: 100%
[3]
  residual activity: 100%
[4]
  residual activity: 100%
[5]
  residual activity: 100%
[6]
  residual activity: 100%
[7]
  residual activity: 100%
[8]
  residual activity: 100%
[9]
  residual activity: 100%
[10]
  residual activity: 100%
[11]
  residual activity: 100%
[12]
  residual activity: 100%
[13]
  residual activity: 100%
[14]
  inhibition: 6.6%
[15]
  residual activity: 100%
[16]
  inhibition: 57.4%
[17]
  residual activity: 100%
[18]
  residual activity: 100%
[19]
  residual activity: 100%
[20]
  residual activity: 94%
[21]
  residual activity: 81%
[22]
  residual activity: 89%
[23]
  residual activity: 100%
[24]
  residual activity: 100%
[25]
  residual activity: 100%
[26]
  residual activity: 100%
[27]
  residual activity: 100%
[28]
  residual activity: 100%
[29]
  residual activity: 89%
[30]
  residual activity: 100%
[31]
  residual activity: 95%
[32]
  residual activity: 80%
[33]
  residual activity: 96%
[34]
  residual activity: 100%
[35]
  residual activity: 71%
[36]
  residual activity: 100%
[37]
  residual activity: 100%
[38]
  residual activity: 100%
[39]
  residual activity: 100%
[40]
  residual activity: 99%
[41]
  residual activity: 100%
[42]
  residual activity: 98%
[43]
  residual activity: 100%
[44]
  residual activity: 100%

## O=C(O)c1cc(-c2ccc(C3CCNCC3)cc2)c2ccc(-c3ccc(C(F)(F)F)cc3)cc2c1 [PPTN]
[1]
  residual activity: 100%
[2]
  residual activity: 100%
[3]
  residual activity: 100%
[4]
  residual activity: 100%
[5]
  residual activity: 100%
[6]
  residual activity: 100%
[7]
  residual activity: 100%
[8]
  residual activity: 100%
[9]
  residual activity: 100%
[10]
  residual activity: 99%
[11]
  residual activity: 100%
[12]
  residual activity: 100%
[13]
  residual activity: 100%
[14]
  inhibition: 7.95%
[15]
  residual activity: 100%
[16]
  inhibition: 85.8%
[17]
  residual activity: 100%
[18]
  residual activity: 100%
[19]
  residual activity: 100%
[20]
  residual activity: 100%
[21]
  residual activity: 84%
[22]
  residual activity: 81%
[23]
  residual activity: 100%
[24]
  residual activity: 100%
[25]
  residual activity: 98%
[26]
  residual activity: 100%
[27]
  residual activity: 100%
[28]
  residual activity: 100%
[29]
  residual activity: 100%
[30]
  residual activity: 100%
[31]
  residual activity: 98%
[32]
  residual activity: 70%
[33]
  residual activity: 90%
[34]
  residual activity: 100%
[35]
  residual activity: 79%
[36]
  residual activity: 86%
[37]
  residual activity: 100%
[38]
  residual activity: 100%
[39]
  residual activity: 100%
[40]
  residual activity: 86%
[41]
  residual activity: 100%
[42]
  residual activity: 87%
[43]
  residual activity: 100%
[44]
  residual activity: 100%
